For the test, the system named is STAT3 phosphorylation and STAT3 regulated genes (survivin, cyclin D1). The test is described as follows: Western immunoblotting of MDA-MB-468 cells (P-STAT3, survivin, cyclin D1). The class given is cell-based, human. Conditions: 100 μM overnight, Western blot. On the procedure: To assess the ability of lead γ-AA peptides to modulate the expression of STAT3 regulated genes, Western immunoblotting was carried out to determine the effect of γ-AA peptides on the expression levels of survivin and cyclin D1. Briefly, Western blots were prepared using cells that were harvested and lysed for 30 min on ice with occasional vortexing in 150 mM Hepes, pH 7.5, 150 mM NaCl, 1 mM EDTA, 0.5% NP-40, 10% glycerol, 5 mM NaF, 1 mM DTT, 1 mM PMSF, 2 mM Na3VO4, and 5 μg/ml leupeptin. Proteins readings were done using the Bradford protein assay, and equal amounts of protein for each sample were loaded into the wells of SDS-PAGE gels. After separation, proteins were transferred to nitrocellulose and Western blots were performed as previously described (Zhang, et al., A Novel Inhibitor of STAT3 Homodimerization Selectively Suppresses STAT3 Activity and Malignant Transformation. Cancer Research 2013, 73, 1922-1933).
A general note: A western blot detects proteins with antibodies after separation by electrophoresis.

As to S3I-1757, the “STAT3 phosphorylation (P-STAT3)” value was “blocked STAT3 phosphorylation”.

The record behind these values is US10351596B2, “γ-AA-peptide STAT3/DNA inhibitors and methods of use” (H. Lee Moffitt Cancer Center and Research Institute, Inc., priority 2014, dated 2019).
